Assay results taken from ChEMBL document CHEMBL4261496, “Targeting quinolone- and aminocoumarin-resistant bacteria with new gyramide analogs that inhibit DNA gyrase” (Medchemcomm, 2017).
Converted amounts (≈) assume the structure as drawn. The source made the active and inactive calls. The calls are words filed in the database; no cut-off is given here.

What was measured:
[1] = system: Escherichia coli; assay: Antibacterial activity against Escherichia coli BW25113 after 16 to 18 hrs by broth microdilution method; format: functional
[2] = system: Escherichia coli; assay: Antibacterial activity against Escherichia coli JW5503 after 16 to 18 hrs by broth microdilution method; format: functional
[3] = system: Escherichia coli; assay: Antibacterial activity against Escherichia coli MC4100 after 16 to 18 hrs by broth microdilution method; format: functional
[4] = system: Escherichia coli; assay: Antibacterial activity against Escherichia coli BAS849 after 16 to 18 hrs by broth microdilution method; format: functional
[5] = system: Escherichia coli; assay: Antibacterial activity against Escherichia coli UPEC after 16 to 18 hrs by broth microdilution method; format: functional
[6] = system: Acinetobacter baumannii; assay: Antibacterial activity against Acinetobacter baumannii clinical isolate after 16 to 18 hrs by broth microdilution method; format: functional
[7] = system: Edwardsiella tarda; assay: Antibacterial activity against Edwardsiella tarda clinical isolate after 16 to 18 hrs by broth microdilution method; format: functional
[8] = system: Klebsiella aerogenes; assay: Antibacterial activity against Enterobacter aerogenes clinical isolate after 16 to 18 hrs by broth microdilution method; format: functional
[9] = system: Klebsiella pneumoniae; assay: Antibacterial activity against Klebsiella pneumoniae after 16 to 18 hrs by broth microdilution method; format: functional
[10] = system: Morganella morganii; assay: Antibacterial activity against Morganella morganii clinical isolate after 16 to 18 hrs by broth microdilution method; format: functional
[11] = system: Pseudomonas aeruginosa; assay: Antibacterial activity against Pseudomonas aeruginosa after 16 to 18 hrs by broth microdilution method; format: functional
[12] = system: Salmonella typhimurium; assay: Antibacterial activity against Salmonella enterica subsp. enterica serovar Typhimurium after 16 to 18 hrs by broth microdilution method; format: functional
[13] = system: Shigella flexneri; assay: Antibacterial activity against Shigella flexneri after 16 to 18 hrs by broth microdilution method; format: functional
[14] = system: Bacillus subtilis; assay: Antibacterial activity against Bacillus subtilis after 16 to 18 hrs by broth microdilution method; format: functional
[15] = system: Bacillus cereus; assay: Antibacterial activity against Bacillus cereus after 16 to 18 hrs by broth microdilution method; format: functional
[16] = system: Enterococcus faecalis; assay: Antibacterial activity against Enterococcus faecalis after 16 to 18 hrs by broth microdilution method; format: functional
[17] = system: Enterococcus faecium; assay: Antibacterial activity against Enterococcus faecium after 16 to 18 hrs by broth microdilution method; format: functional
[18] = system: Staphylococcus aureus; assay: Antibacterial activity against Staphylococcus aureus subsp. aureus clinical isolate after 16 to 18 hrs by broth microdilution method; format: functional
[19] = system: Staphylococcus saprophyticus; assay: Antibacterial activity against Staphylococcus saprophyticus clinical isolate after 16 to 18 hrs by broth microdilution method; format: functional
[20] = system: Staphylococcus epidermidis; assay: Antibacterial activity against Staphylococcus epidermidis clinical isolate after 16 to 18 hrs by broth microdilution method; format: functional
[21] = system: Streptococcus agalactiae; assay: Antibacterial activity against Streptococcus agalactiae after 16 to 18 hrs by broth microdilution method; format: functional
[22] = system: Streptococcus pyogenes; assay: Antibacterial activity against Streptococcus pyogenes after 16 to 18 hrs by broth microdilution method; format: functional
[23] = system: Escherichia coli; assay: Antibacterial activity against gyramide-resistant Escherichia coli JW5503 harboring GyrA Pro35Thr mutant after 16 to 18 hrs by broth microdilution method; format: functional
[24] = system: Escherichia coli; assay: Antibacterial activity against gyramide-resistant Escherichia coli JW5503 harboring GyrA Ser97Pro mutant after 16 to 18 hrs by broth microdilution method; format: functional
[25] = system: Escherichia coli; assay: Antibacterial activity against gyramide-resistant Escherichia coli JW5503 harboring GyrA Phe96Leu mutant after 16 to 18 hrs by broth microdilution method; format: functional
[26] = system: Escherichia coli; assay: Antibacterial activity against gyramide-resistant Escherichia coli JW5503 harboring GyrA His45Tyr mutant after 16 to 18 hrs by broth microdilution method; format: functional
[27] = system: Escherichia coli; assay: Antibacterial activity against gyramide-resistant Escherichia coli JW5503 harboring GyrB Thr508Met mutant after 16 to 18 hrs by broth microdilution method; format: functional
[28] = system: Escherichia coli; assay: Antibacterial activity against ciprofloxacin-resistant Escherichia coli JW5503 harboring GyrA Ser83Leu mutant after 16 to 18 hrs by broth microdilution method; format: functional
[29] = system: Escherichia coli; assay: Antibacterial activity against ciprofloxacin-resistant Escherichia coli JW5503 harboring GyrA Asp87Gly mutant after 16 to 18 hrs by broth microdilution method; format: functional
[30] = system: Escherichia coli; assay: Antibacterial activity against ciprofloxacin-resistant Escherichia coli JW5503 harboring GyrA Asp87Tyr mutant after 16 to 18 hrs by broth microdilution method; format: functional
[31] = system: Escherichia coli; assay: Antibacterial activity against Escherichia coli HB101 after 16 to 18 hrs by broth microdilution method; format: functional
[32] = system: Escherichia coli; assay: Antibacterial activity against Escherichia coli HB101 after 16 to 18 hrs in presence of PAbetaN by broth microdilution method; format: functional
[33] = Ratio of MIC for Escherichia coli BW25113 to MIC for Escherichia coli JW5503; format: functional
[34] = system: Escherichia coli; assay: Ratio of MIC for Escherichia coli MC4100 to MIC for Escherichia coli BAS849; format: functional
[35] = system: Escherichia coli; assay: Ratio of MIC for gyramide-resistant Escherichia coli JW5503 harboring GyrA Pro35Thr mutant to MIC for Escherichia coli JW5503; format: functional
[36] = system: Escherichia coli; assay: Ratio of MIC for gyramide-resistant Escherichia coli JW5503 harboring GyrA Ser97Pro mutant to MIC for Escherichia coli JW5503; format: functional
[37] = system: Escherichia coli; assay: Ratio of MIC for gyramide-resistant Escherichia coli JW5503 harboring GyrA Phe96Leu mutant to MIC for Escherichia coli JW5503; format: functional
[38] = system: Escherichia coli; assay: Ratio of MIC for gyramide-resistant Escherichia coli JW5503 harboring GyrA His45Tyr mutant to MIC for Escherichia coli JW5503; format: functional
[39] = system: Escherichia coli; assay: Ratio of MIC for gyramide-resistant Escherichia coli JW5503 harboring GyrB Ser464Phe mutant to MIC for Escherichia coli JW5503; format: functional
[40] = system: Escherichia coli; assay: Ratio of MIC for ciprofloxacin-resistant Escherichia coli JW5503 harboring GyrA Asp87Tyr mutant to MIC for Escherichia coli JW5503; format: functional
[41] = system: Escherichia coli; assay: Ratio of MIC for ciprofloxacin-resistant Escherichia coli JW5503 harboring GyrA Ser83Leu mutant to MIC for Escherichia coli JW5503; format: functional
[42] = system: Escherichia coli; assay: Ratio of MIC for ciprofloxacin-resistant Escherichia coli JW5503 harboring GyrA Asp87Gly mutant to MIC for Escherichia coli JW5503; format: functional
[43] = system: Escherichia coli; assay: Ratio of MIC for ciprofloxacin-resistant Escherichia coli JW5503 harboring GyrB Ser464Phe mutant to MIC for Escherichia coli JW5503; format: functional
[44] = system: Escherichia coli; assay: Ratio of MIC for novobiocin-resistant Escherichia coli CC5 harboring GyrB Arg136His mutant to MIC for Escherichia coli HB101; format: functional
[45] = system: Escherichia coli; assay: Ratio of MIC for novobiocin-resistant Escherichia coli LE316 harboring GyrB Arg136Val mutant to MIC for Escherichia coli HB101; format: functional
[46] = system: Escherichia coli; assay: Ratio of MIC for novobiocin-resistant Escherichia coli CC7 harboring GyrB Arg136Ser mutant to MIC for Escherichia coli HB101; format: functional
[47] = molecular target: DNA gyrase (Escherichia coli, UniProt P0AES4+P0AES6); assay: Inhibition of Escherichia coli DNA gyrase assessed as inhibition of pUC19 supercoiling after 30 mins by agarose gel electrophoresis; format: protein-complex assay
[48] = molecular target: DNA gyrase (Escherichia coli) (UniProt P0AES6+P0AES4); assay: Inhibition of Escherichia coli DNA gyrase ATPase activity up to 100 uM using DNA as substrate after 60 mins; format: protein-complex assay
[49] = system: Escherichia coli; assay: Antibacterial activity against Escherichia coli JW5503 transfected with empty vector in absence of IPTG induction after 16 hrs by broth microdilution method; format: functional; conditions: JW5503, 16 h
[50] = system: Escherichia coli; assay: Antibacterial activity against Escherichia coli JW5503 overexpressing gyrA in presence of IPTG induction after 16 hrs by broth microdilution method; format: functional; conditions: JW5503, 16 h
[51] = system: Escherichia coli; assay: Antibacterial activity against Escherichia coli JW5503 overexpressing gyrA in absence of IPTG induction after 16 hrs by broth microdilution method; format: functional; conditions: JW5503, 16 h
[52] = system: Escherichia coli; assay: Antibacterial activity against Escherichia coli JW5503 overexpressing gyrB in presence of IPTG induction after 16 hrs by broth microdilution method; format: functional; conditions: JW5503, 16 h
[53] = system: Escherichia coli; assay: Antibacterial activity against Escherichia coli JW5503 overexpressing gyrA/gyrB in presence of IPTG induction after 16 hrs by broth microdilution method; format: functional; conditions: JW5503, 16 h
[54] = system: Escherichia coli; assay: Antibacterial activity against Escherichia coli JW5503 overexpressing gyrA/gyrB in absence of IPTG induction after 16 hrs by broth microdilution method; format: functional; conditions: JW5503, 16 h
[55] = system: Escherichia coli; assay: Antibacterial activity against Escherichia coli JW5503 simultaneously overexpressing gyrA/gyrB in presence of IPTG induction after 16 hrs by broth microdilution method; format: functional, organism-based
[56] = system: Escherichia coli; assay: Antibacterial activity against Escherichia coli JW5503 overexpressing gyrB in absence of IPTG induction after 16 hrs by broth microdilution method; format: functional; conditions: JW5503, 16 h
[57] = system: Escherichia coli; assay: Antibacterial activity against Escherichia coli transfected with empty vector

`N#Cc1cccc(S(=O)(=O)N[C@@H]2CCN(Cc3ccc(-c4ccccc4)cc3)C2)c1` showed an MIC [1] of 16 mg/L (≈ 38.3 µM), an MIC [2] of 0.1 mg/L (≈ 0.24 µM) and an MIC [3] of 8 mg/L (≈ 19.2 µM). It also gave an MIC [4] of 1 mg/L (≈ 2.4 µM), an MIC [5] of 16 mg/L (≈ 38.3 µM) and an MIC [6] greater than 16 mg/L. It also gave an MIC [7] of 16 mg/L (≈ 38.3 µM), an MIC [8] greater than 16 mg/L and an MIC [9] greater than 16 mg/L. It also gave an MIC [10] greater than 16 mg/L, an MIC [11] greater than 16 mg/L and an MIC [12] of 2 mg/L (≈ 4.79 µM). The MIC [13] was 8 mg/L (≈ 19.2 µM), the MIC [14] was greater than 16 mg/L and the MIC [15] was greater than 16 mg/L. For the same compound, the MIC [16] was greater than 16 mg/L, the MIC [17] was greater than 16 mg/L and the MIC [18] was greater than 16 mg/L. The MIC [19] was greater than 16 mg/L, the MIC [20] was greater than 16 mg/L and the MIC [21] was greater than 16 mg/L. It also gave an MIC [22] greater than 16 mg/L, an MIC [23] of 10 mg/L (≈ 24 µM) and an MIC [24] greater than 10 mg/L. The MIC [25] was 10 mg/L (≈ 24 µM), the MIC [26] was 10 mg/L (≈ 24 µM) and the MIC [27] was 10 mg/L (≈ 24 µM). For the same compound, the MIC [28] was 0.2 mg/L (≈ 0.479 µM), the MIC [29] was 0.4 mg/L (≈ 0.958 µM) and the MIC [30] was 0.4 mg/L (≈ 0.958 µM). The MIC [31] was greater than 16 mg/L, the MIC [32] was 0.1 mg/L and the Ratio [33] was 160. The Ratio [34] was 8, the Ratio [35] was 10 - 100 and the Ratio [36] was 10 - 100. The Ratio [37] was 10 - 100, the Ratio [38] was 10 - 100 and the Ratio [39] was 10 - 100. For the same compound, the Ratio [40] was 2 - 4, the Ratio [41] was 2 - 4 and the Ratio [42] was 2 - 4. For the same compound, the Ratio [43] was 2 - 4, the Ratio [44] was 2 - 4 and the Ratio [45] was 2 - 4. For the same compound, the Ratio [46] was 2 - 4, the IC50 [47] was 0.052 µM and the inhibition [48] was “inactive”. It also gave an MIC [49] of 0.2 mg/L (≈ 0.479 µM), an MIC [50] of 0.1 mg/L and an MIC [51] of 0.2 mg/L (≈ 0.479 µM). It also gave an MIC [52] of 0.1 mg/L, an MIC [53] of 0.1 mg/L and an MIC [54] of 0.2 mg/L (≈ 0.479 µM). For the same compound, the Activity [55] was “Active”.

In the case of `O=C(O)c1cn(C2CC2)c2cc(N3CCNCC3)c(F)cc2c1=O` [CIPROFLOXACIN], the MIC [28] is reported as 0.0064 mg/L (≈ 0.0193 µM), the inhibition [48] is reported as “inactive” and the MIC [49] is reported as 0.0021 mg/L (≈ 0.00634 µM). The MIC [51] was 0.0021 mg/L (≈ 0.00634 µM), the MIC [52] was 0.0021 mg/L and the MIC [56] was 0.0021 mg/L (≈ 0.00634 µM). The MIC [54] was 0.0021 mg/L (≈ 0.00634 µM), the Activity [55] was “Active” and the MIC [57] was 0.009 mg/L (≈ 0.0272 µM).
